Results reported in patent publication US5585383A, “Process for crystallizing a 4-azasteroid 5alpha-reductase inhibitor” (Merck & Co., Inc., priority 1995, dated 1996).
Entries after “also recorded” stand apart in the source; their conditions may differ.

Experiment: Relative stability of crystalline polymorphs (DSC, x-ray powder diffraction)
Format: physicochemical
Conditions: non-solvated crystalline forms of 4,7β-dimethyl-4-aza-5α-cholestan-3-one
Method: The crystallinity of each batch was determined primarily from Differential Scanning Calorimetry (DSC) employing a DuPont Model 910 Thermal Analyzer. However, any other reliable means may be employed to determine the crystallinity of a sample, such as x-ray powder diffraction, solid state NMR, or polarizing microscopy.
Generally, a DSC sample was prepared by weighing. 10 to 30 mg of material into a DSC cup and crimping the cup closed. Preferably, each DSC sample was run as soon as possible after preparation, most preferably within 15 minutes of preparation, because crystallinity increases with aging. Generally, samples were heated at a rate of 10° C./min from 10° C. to 100° C. under nitrogen. The DSC peaks were integrated and the measured heat of formation was divided by 46.6 J/g (the average heat of formation of samples confirmed by x-ray diffraction to contain no Form II) to calculate the percent crystallinity of the sample. The term percent crystallinity refers to the weight percent of 4,7β-dimethyl-4-aza-5α-cholestan-3-one sample weight in Form I.
X-ray diffraction was also employed to confirm DSC results. […] This method was not employed for quantitative analysis of the degree of crystallinity.

Compound | polymorph stability
CC(C)CCC[C@@H](C)[C@H]1CC[C@H]2[C@@H]3[C@@H](C)C[C@H]4N(C)C(=O)CC[C@]4(C)[C@H]3CC[C@]12C [Form II, 4,7β-dimethyl-4-aza-5α-cholestan-3-one] | transforms to Form I with time and/or mechanical manipulation; also recorded: less energetically favored polymorph
CC(C)CCC[C@@H](C)[C@H]1CC[C@H]2[C@@H]3[C@@H](C)C[C@H]4N(C)C(=O)CC[C@]4(C)[C@H]3CC[C@]12C [Form I, 4,7β-dimethyl-4-aza-5α-cholestan-3-one] | more stable, energetically favored polymorph
